In patent US12691116B2, “SETBP1 and XPO1 inhibitors for the treatment of sickle cell disease and β-thalassemia” (The Henry M. Jackson Foundation for the Advancement of …, priority 2019, dated 2026):

Experiments:
MEL cells [1] = experiment: Real-time RT-PCR of Hbb-bh1, Hbb-y and Hbb-b1 mRNA in MEL cells after 48 hours of treatment; format: cell-based, mouse; conditions: for increase in Hbb-bh1 (embryonic hemoglobin) mRNA level / increase in Hbb-y (fetal hemoglobin) mRNA level: 0.1 μM, 48 hours, relative to vehicle, normalized to Rpl4; for effect on Hbb-y mRNA level (in words) / effect on Hbb-bh1 mRNA level (in words): 48 hours of treatment at indicated concentration
Protocol: Real-time RT-PCR analysis of Hbb-bh1, Hbb-y, and Hbb-b1 mRNA levels in MEL cells after 48 hours of treatment with compound 1AA at indicated concentration or with control DMSO. Relative expression levels were calculated by normalizing to Rpl4 mRNA levels in the same sample and also to cells […] with DMSO. […]
Relative expression levels were calculated by normalizing to Rpl4 mRNA levels in the same sample and also to cells treated with DMSO.
(§1) For studies using MEL cells, the cells were treated with selected inhibitors or vehicle in a culture medium (RPM 11640 medium with 10% fetal bovine serum) for 48 hours and were subsequently harvested for analysis of relative mRNA levels of Hbb-bh1, Hbb-y, and Hbb-b1 using real-time RT-PCR. For studies using primary human CD34+ hematopoietic stem and progenitor cells, the cells were treated with inhibitors or vehicle following or concurrent with induction of erythroid differentiation using an established two-phase culture protocol (Xu et al., Genes & Development 24(8): 783-798 (2010)). Relative mRNA levels of β-like globin genes in human cells after treatment were also analyzed using real-time RT-PCR.

human erythroid cells = experiment: Erythroid differentiation of human mobilized CD34+ cells, real-time RT-PCR of globin mRNA; format: cell-based; conditions: human erythroid cells from CD34+ cells, treatment from day 5 of expansion, harvested day 10 of differentiation
Excerpt: Human CD34^+ cells mobilized by granulocyte-colony stimulating factor (G-CSF) were induced to undergo erythroid differentiation in culture. Treatment with Compound 1AA and 1BB at indicated concentrations or vehicles (DMSO or water) were started at day 5 of expansion condition. Erythroid cells were harvested at day 10 of differentiation condition for real-time RT-PCR analysis of human embryonic […] (FIG. 8A), fetal γ (FIG. 8B), and adult β (FIG. 8C) hemoglobin mRNA levels. Relative expression levels were calculated by normalizing to RPL4 mRNA levels in the same sample and also to cells treated with DMSO. (FIG. 8D) Representative bar graphs showing mRNA levels of human embryonic and fetal hemoglobin (γ+ε) as a percentage of total β-like globin (β+γ+ε) mRNA levels after treatment with Compound 1AA and 1BB versus DMSO. Note that a level of 20% or above for embryonic and fetal hemoglobin is considered curative for sickle cell disease. **, P<0.01; ***, P<0.001; ****P<0.0001 (two-tailed Student's t test).
as §1
Primary human mobilized CD34^+ cells were initially cultured in expansion medium containing StemSpan SFEM Medium (StemCell Technologies Inc.) with 1×CC100 cytokine mix (StemCell Technologies Inc.) and 2% Penicillin-Streptomycin (Life Technologies Inc.). Cells were maintained in this expansion medium at a density of 0.1-1×10^6 cells/mL for a total of six days with media changes every two days. On day 6, cells were transferred into differentiation medium containing StemSpan SFEM Medium with 2% Penicillin-Streptomycin, 20 ng/ml SCF (Biolegend), 1 U/ml EPO (Amgen), 5 ng/ml IL-3 (Biolegend), 2 μM dexamethasone (Sigma), and 1 μM β-estradiol (Sigma). Cells were maintained at a density of 0.1-1×10^6 cells/mL in differentiation medium for 10 days with media changes every two days. Drug treatments were started at day 5 of expansion condition and maintained thereafter. Fresh drugs were added at each medium change.

MEL cells [2] = experiment: Real-time RT-PCR of hemoglobin mRNA in MEL cells 48 hours after removal of compound (24 hours treatment); format: cell-based, mouse; conditions: treated 24 hours, examined 48 hours after removal
Protocol: Real-time RT-PCR analysis of Hbb-bh1, Hbb-y, and Hbb-b1 mRNA levels in MEL cells 48 hours after removal of Compound (1AA) or KPT-185 from culture. The cells were first treated with Compound (1AA) or KPT-185 for 24 hours. Relative expression levels were calculated by normalizing to Rpl4 mRNA levels in the same sample and also to cells treated with DMSO.
A further experiment examined whether continuous treatment of Compound (1AA) and KPT-185 as exemplary SETBP1 and XPO1 inhibitors, respectively, was required for activation of Hbb-bh1 and Hbb-y expression. MEL cells were treated with Compound (1AA) and KPT-185 for 24 hours and the Hbb-bh1 and Hbb-y mRNA levels were then examined at 48 hours after their removal.

[3] = system: SETBP1 interaction with XPO1; conditions: cited from earlier work
SETBP1 = SETBP1 (Homo sapiens, UniProt Q9Y6X0); conditions: cited from earlier work
SETBP1, sequence (Q9Y6X0 whole entry): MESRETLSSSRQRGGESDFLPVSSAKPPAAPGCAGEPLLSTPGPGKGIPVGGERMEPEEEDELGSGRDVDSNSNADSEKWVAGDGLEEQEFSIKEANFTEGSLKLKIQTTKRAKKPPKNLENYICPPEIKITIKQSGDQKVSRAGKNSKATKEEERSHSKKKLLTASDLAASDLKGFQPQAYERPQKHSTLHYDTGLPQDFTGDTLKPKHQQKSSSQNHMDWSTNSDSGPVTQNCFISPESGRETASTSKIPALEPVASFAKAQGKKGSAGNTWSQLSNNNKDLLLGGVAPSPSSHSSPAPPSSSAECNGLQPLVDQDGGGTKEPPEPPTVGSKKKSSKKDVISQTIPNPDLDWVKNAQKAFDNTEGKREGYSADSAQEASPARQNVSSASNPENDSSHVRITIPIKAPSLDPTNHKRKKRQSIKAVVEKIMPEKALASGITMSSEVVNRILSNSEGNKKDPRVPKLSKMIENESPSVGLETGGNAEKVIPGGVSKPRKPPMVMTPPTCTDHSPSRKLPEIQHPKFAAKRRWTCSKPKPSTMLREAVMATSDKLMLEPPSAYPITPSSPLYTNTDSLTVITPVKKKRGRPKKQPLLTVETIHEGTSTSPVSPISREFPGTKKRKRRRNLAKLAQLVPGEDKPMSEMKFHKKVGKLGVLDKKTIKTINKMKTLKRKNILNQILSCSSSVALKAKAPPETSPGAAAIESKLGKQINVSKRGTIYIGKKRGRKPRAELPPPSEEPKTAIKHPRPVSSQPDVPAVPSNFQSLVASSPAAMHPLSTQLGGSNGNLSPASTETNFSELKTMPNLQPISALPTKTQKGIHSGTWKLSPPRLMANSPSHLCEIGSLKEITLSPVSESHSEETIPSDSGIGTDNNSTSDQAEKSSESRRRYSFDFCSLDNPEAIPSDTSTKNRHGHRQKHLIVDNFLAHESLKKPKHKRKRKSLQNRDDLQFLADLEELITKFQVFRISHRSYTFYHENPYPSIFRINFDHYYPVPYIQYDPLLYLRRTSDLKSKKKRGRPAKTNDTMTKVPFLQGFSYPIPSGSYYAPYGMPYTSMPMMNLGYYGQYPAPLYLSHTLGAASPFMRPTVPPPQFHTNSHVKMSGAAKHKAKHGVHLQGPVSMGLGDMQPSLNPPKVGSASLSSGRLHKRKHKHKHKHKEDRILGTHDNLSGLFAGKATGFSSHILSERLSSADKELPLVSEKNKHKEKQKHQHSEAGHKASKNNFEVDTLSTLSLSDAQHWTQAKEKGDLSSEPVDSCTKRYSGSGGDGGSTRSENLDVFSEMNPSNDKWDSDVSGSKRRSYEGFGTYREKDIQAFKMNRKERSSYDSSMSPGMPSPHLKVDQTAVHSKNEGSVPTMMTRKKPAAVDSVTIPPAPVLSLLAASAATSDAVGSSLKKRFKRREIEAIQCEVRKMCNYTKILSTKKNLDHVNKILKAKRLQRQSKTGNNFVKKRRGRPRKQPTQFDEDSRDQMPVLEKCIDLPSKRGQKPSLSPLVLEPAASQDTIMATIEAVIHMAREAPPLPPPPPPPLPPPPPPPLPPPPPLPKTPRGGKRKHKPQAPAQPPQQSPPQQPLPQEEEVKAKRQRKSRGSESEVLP

Compound | increase in Hbb-bh1 (embryonic hemoglobin) mRNA level (MEL cells [1]) | increase in Hbb-y (fetal hemoglobin) mRNA level (MEL cells [1]) | effect on adult hemoglobin Hbb-b1 mRNA level (MEL cells [1]; 48 hours of treatment) | human embryonic hemoglobin mRNA level (human erythroid cells) | human fetal γ hemoglobin mRNA level (human erythroid cells) | Hbb-bh1 mRNA level after removal of compound (MEL cells [2]) | Hbb-y mRNA level after removal of compound (MEL cells [2]) | blocking of SETBP1 interaction with cofactor XPO1 [3] | inhibition of SETBP1 (transcriptional activity) (SETBP1) | effect on Hbb-y mRNA level (in words) (MEL cells [1]) | effect on Hbb-bh1 mRNA level (in words) (MEL cells [1]) | Hbb-bh1 mRNA level compared to cells treated with hydroxyurea (MEL cells [1]; 48 hours of treatment)
Cc1c2cc[n+](CCN3CCCCC3)cc2c(C)c2c1[nH]c1ccc(O)cc12.[Br-] [Compound (1AA)] | > 8 fold | > 8 fold | only minor changes | significantly increased | significantly increased | Significantly elevated levels | Significantly elevated levels | blocking | inhibitor | – | – | –
O=C(/C=C\n1cnc(-c2cc(C(F)(F)F)cc(C(F)(F)F)c2)n1)NNc1cnccn1 [KPT-330, reference compound] | – | – | – | – | – | – | – | – | – | significantly increase | – | –
NC(=O)/C(=C/n1cnc(-c2cc(C(F)(F)F)cc(C(F)(F)F)c2)n1)c1cncnc1 [KPT-8602, reference compound] | – | – | – | – | – | – | – | – | – | significantly increase | significantly increase | –
COc1cc(-c2ncn(/C=C\C(=O)OC(C)C)n2)cc(C(F)(F)F)c1 [KPT-185, reference compound] | over 60 fold | over 14 fold | – | – | – | Significantly elevated levels | Significantly elevated levels | – | – | – | – | ~30 fold
CCN(CC)CC[n+]1ccc2c(C)c3[nH]c4ccc(O)cc4c3c(C)c2c1.[Cl-] [Compound (1BB)] | – | – | minor effects | significantly increased | significantly increased | – | – | – | inhibitor | significantly increase | significantly increase | –
